Laboratory results from patent publication US20210395239A1 (Hoffmann-La Roche Inc., priority 2018, published 2021).

Biological target: T1, human TLR7 (Homo sapiens, UniProt Q9NYK1)
T1 construct: host or cells: HEK293 (HEK-Blue hTLR7)
T1 sequence (Q9NYK1 27-1049): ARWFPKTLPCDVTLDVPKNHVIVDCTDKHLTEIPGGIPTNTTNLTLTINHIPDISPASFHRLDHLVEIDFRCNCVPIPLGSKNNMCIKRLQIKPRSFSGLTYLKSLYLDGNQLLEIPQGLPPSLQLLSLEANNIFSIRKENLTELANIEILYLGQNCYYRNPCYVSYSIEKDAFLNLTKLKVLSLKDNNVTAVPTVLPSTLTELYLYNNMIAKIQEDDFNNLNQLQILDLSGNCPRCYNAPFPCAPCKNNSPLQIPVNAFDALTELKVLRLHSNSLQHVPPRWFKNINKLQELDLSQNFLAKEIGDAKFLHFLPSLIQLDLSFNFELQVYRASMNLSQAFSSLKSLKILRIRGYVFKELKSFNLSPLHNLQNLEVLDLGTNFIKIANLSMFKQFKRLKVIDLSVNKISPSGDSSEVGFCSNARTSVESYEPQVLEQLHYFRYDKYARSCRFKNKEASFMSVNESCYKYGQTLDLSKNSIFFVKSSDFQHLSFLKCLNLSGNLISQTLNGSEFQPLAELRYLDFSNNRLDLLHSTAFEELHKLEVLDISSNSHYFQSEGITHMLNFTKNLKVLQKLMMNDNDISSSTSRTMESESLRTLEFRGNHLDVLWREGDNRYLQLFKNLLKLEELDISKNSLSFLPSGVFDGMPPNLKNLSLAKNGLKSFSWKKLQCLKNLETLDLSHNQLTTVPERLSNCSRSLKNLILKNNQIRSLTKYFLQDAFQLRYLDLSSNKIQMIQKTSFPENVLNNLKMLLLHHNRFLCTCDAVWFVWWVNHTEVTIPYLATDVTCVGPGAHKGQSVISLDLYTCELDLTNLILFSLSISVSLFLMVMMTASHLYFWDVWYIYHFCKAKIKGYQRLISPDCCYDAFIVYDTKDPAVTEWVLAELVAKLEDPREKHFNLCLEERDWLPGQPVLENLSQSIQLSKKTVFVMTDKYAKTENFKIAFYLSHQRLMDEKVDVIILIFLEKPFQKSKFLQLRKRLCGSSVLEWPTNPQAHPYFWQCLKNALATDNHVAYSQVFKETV
Assay: HEK293-Blue-hTLR-7 cells assay (SEAP reporter, R848 stimulation)
Format: cell-based
Details: HEK293-Blue-hTLR7 cells, R848, 20 hrs; read-out: HEK/hTLR7 IC50
How it was run: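 HEK293-Blue-hTLR7 cells (NF-κB/AP-1-driven SEAP reporter) were stimulated with R848 alongside serially diluted compound at 1% final DMSO for 20 h at 37 °C. Supernatant SEAP was then developed with QUANTI-Blue for 2 h at 37 °C and absorbance read at 620–655 nm; antagonism is measured as reduced reporter signal.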

| Compound | IC50 |
| --- | --- |
| C[C@@H]1CN(c2ccc(C#N)c3ncccc23)C[C@H](CN2CCN(c3nccc(N4CCNCC4)n3)CC2)O1 [Example 14, 5-[(2R,6S)-2-methyl-6-[[4-(4-piperazin-1-ylpyrimidin-2-yl)piperazin-1-yl]methyl]morpholin-4-yl]quinoline-8-carbonitrile] | 6 nM |
| C[C@@H]1CN(c2ccc(C#N)c3ncccc23)C[C@H](CN2CCN(c3nc(N4CCNCC4)ncc3C#N)CC2)O1 [Example 50, 5-[(2S,6R)-2-[[4-(5-cyano-2-piperazin-1-yl-pyrimidin-4-yl)piperazin-1-yl]methyl]-6-methyl-morpholin-4-yl]quinoline-8-carbonitrile] | 16 nM |
| Cc1cc(N2CCN(C[C@H]3CN(c4ccc(C#N)c5ncccc45)C[C@@H](C)O3)CC2)nc(N2CCOCC(N)C2)n1 (stereo partly drawn) [Example 56, 5-[(2S,6R)-2-[[4-[2-(6-amino-1,4-oxazepan-4-yl)-6-methyl-pyrimidin-4-yl]piperazin-1-yl]methyl]-6-methyl-morpholin-4-yl]quinoline-8-carbonitrile] | 56 nM |
| Cc1cc(N2CCN(C[C@H]3CN(c4ccc(C#N)c5ncccc45)C[C@@H](C)O3)CC2)nc(N2CCNCC2)n1 [Example 47, 5-[(2R,6S)-2-methyl-6-[[4-(6-methyl-2-piperazin-1-yl-pyrimidin-4-yl)piperazin-1-yl]methyl]morpholin-4-yl]quinoline-8-carbonitrile] | 13 nM |
| COC1CN(c2nccc(N3CCN(C[C@H]4CN(c5ccc(C#N)c6ncccc56)C[C@@H](C)O4)CC3)n2)C[C@H]1N (stereo in doubt) [Example 52, 5-[(2S,6R)-2-[[4-[2-[(3R,4R)-3-amino-4-methoxy-pyrrolidin-1-yl]pyrimidin-4-yl]piperazin-1-yl]methyl]-6-methyl-morpholin-4-yl]quinoline-8-carbonitrile] | 15 nM |
| C[C@@H]1CN(c2ccc(C#N)c3ncccc23)C[C@H](CN2CCN(c3ccnc(N4CCN(C(=O)C5CCN5)CC4)n3)CC2)O1 (stereo partly drawn) [Example 34, 5-[(2S,6R)-2-[[4-[2-[4-(azetidine-2-carbonyl)piperazin-1-yl]pyrimidin-4-yl]piperazin-1-yl]methyl]-6-methyl-morpholin-4-yl]quinoline-8-carbonitrile] | 27 nM |
| C[C@@H]1CN(c2ccc(C#N)c3ncccc23)C[C@H](CN2CCN(c3ccc([C@@H]4CNCCO4)cc3)CC2)O1 [Example 19, 5-[(2R,6S)-2-methyl-6-[[4-[4-[(2R)-morpholin-2-yl]phenyl]piperazin-1-yl]methyl]morpholin-4-yl]quinoline-8-carbonitrile] | 25 nM |
| C[C@@H]1CN(c2ccc(C#N)c3ncccc23)C[C@H](CN2CCN(c3cccc(N4CC(N)C(F)C4)n3)CC2)O1 (stereo partly drawn) [Example 40, 5-[(2S,6R)-2-[[4-[6-(3-amino-4-fluoro-pyrrolidin-1-yl)-2-pyridyl]piperazin-1-yl]methyl]-6-methyl-morpholin-4-yl]quinoline-8-carbonitrile] | 35 nM |
| C[C@@H]1CN(c2ccc(C#N)c3ncccc23)C[C@H](CN2CCN(c3ccc([C@H]4CNCCO4)cc3)CC2)O1 [Example 20, 5-[(2R,6S)-2-methyl-6-[[4-[4-[(2S)-morpholin-2-yl]phenyl]piperazin-1-yl]methyl]morpholin-4-yl]quinoline-8-carbonitrile] | 20 nM |
| C[C@@H]1CN(c2ccc(C#N)c3ncccc23)C[C@H](CN2CCN(c3cccc(N[C@H]4CNC[C@@H]4F)n3)CC2)O1 [Example 35, 5-[(2S,6R)-2-[[4-[6-[[(3S,4S)-4-fluoropyrrolidin-3-yl]amino]-2-pyridyl]piperazin-1-yl]methyl]-6-methyl-morpholin-4-yl]quinoline-8-carbonitrile] | 65 nM |
| C[C@@H]1CN(c2ccc(C#N)n3ncc(F)c23)C[C@H](CN2CCN(c3ccc(N[C@H]4CNC[C@H]4F)nc3)CC2)O1 [Example 167, 3-fluoro-4-[(2S,6R)-2-[[4-[6-[[(3S,4R)-4-fluoropyrrolidin-3-yl]amino]-3-pyridyl]piperazin-1-yl]methyl]-6-methyl-morpholin-4-yl]pyrazolo[1,5-a]pyridine-7-carbonitrile] | 14 nM |
| C[C@@H]1CN(c2ccc(C#N)c3ncccc23)C[C@H](CN2CCN(c3ccnc(N4CCN(C(=O)CN(C)C)CC4)n3)CC2)O1 [Example 32, 5-[(2S,6R)-2-[[4-[2-[4-[2-(dimethylamino)acetyl]piperazin-1-yl]pyrimidin-4-yl]piperazin-1-yl]methyl]-6-methyl-morpholin-4-yl]quinoline-8-carbonitrile] | 6 nM |
| CO[C@H]1CN(c2nc(C)cc(N3CCN(C[C@H]4CN(c5ccc(C#N)c6ncccc56)C[C@@H](C)O4)CC3)n2)CC1N (relative stereo) [Example 59, 5-[(2R,6S)-2-methyl-6-[[4-[6-methyl-2-[trans-3-amino-4-methoxy-pyrrolidin-1-yl]pyrimidin-4-yl]piperazin-1-yl]methyl]morpholin-4-yl]quinoline-8-carbonitrile] | 11 nM |
| C[C@@H]1CN(c2ccc(C#N)n3ncc(F)c23)C[C@H](CN2CCN(c3ccc(C4CNCCO4)cc3F)CC2)O1 (stereo in doubt) [Example 183, 3-fluoro-4-[(2S,6R)-2-[[4-[2-fluoro-4-[(2S)-morpholin-2-yl]phenyl]piperazin-1-yl]methyl]-6-methyl-morpholin-4-yl]pyrazolo[1,5-a]pyridine-7-carbonitrile] | 28 nM |
| COc1cnc(N2CCNCC2)nc1N1CCN(C[C@H]2CN(c3ccc(C#N)c4ncccc34)C[C@@H](C)O2)CC1 [Example 48, 5-[(2S,6R)-2-[[4-(5-methoxy-2-piperazin-1-yl-pyrimidin-4-yl)piperazin-1-yl]methyl]-6-methyl-morpholin-4-yl]quinoline-8-carbonitrile] | 9 nM |
| C[C@@H]1CN(c2ccc(C#N)n3ncc(F)c23)C[C@H](CN2CCN(c3ccc(C4(C)CNCCO4)cc3)CC2)O1 (stereo partly drawn) [Example 185, 3-fluoro-4-[(2R,6S)-2-methyl-6-[[4-[4-(2-methylmorpholin-2-yl)phenyl]piperazin-1-yl]methyl]morpholin-4-yl]pyrazolo[1,5-a]pyridine-7-carbonitrile] | 39 nM |
| CO[C@H]1CN(c2nc(C)cc(N3CCN(C[C@H]4CN(c5ccc(C#N)c6ncccc56)C[C@@H](C)O4)CC3)n2)C[C@H]1N [Example 60, 5-[(2R,6S)-2-methyl-6-[[4-[6-methyl-2-[cis-3-amino-4-methoxy-pyrrolidin-1-yl]pyrimidin-4-yl]piperazin-1-yl]methyl]morpholin-4-yl]quinoline-8-carbonitrile] | 11 nM |
| C[C@@H]1CN(c2ccc(C#N)n3ncc(F)c23)C[C@H](CN2CCN(c3ccc(N4CC5(CN(C)C5)C4)nc3)CC2)O1 [Example 170, 3-fluoro-4-[(2R,6S)-2-methyl-6-[[4-[6-(6-methyl-2,6-diazaspiro[3.3]heptan-2-yl)-3-pyridyl]piperazin-1-yl]methyl]morpholin-4-yl]pyrazolo[1,5-a]pyridine-7-carbonitrile] | 6 nM |
| Cc1cc(N2CCN(C[C@H]3CN(c4ccc(C#N)c5ncccc45)C[C@@H](C)O3)CC2)nc(NC2CNCC2C#N)n1 (stereo partly drawn) [Example 57, 5-[(2S,6R)-2-[[4-[2-[(4-cyanopyrrolidin-3-yl)amino]-6-methyl-pyrimidin-4-yl]piperazin-1-yl]methyl]-6-methyl-morpholin-4-yl]quinoline-8-carbonitrile] | 27 nM |
| C[C@@H]1CN(c2ccc(C#N)n3ncc(F)c23)C[C@H](CN2CCN(c3ccc([C@@H]4CNCCO4)c(F)c3)CC2)O1 [Example 184, 3-fluoro-4-[(2S,6R)-2-[[4-[3-fluoro-4-[(2R)-morpholin-2-yl]phenyl]piperazin-1-yl]methyl]-6-methyl-morpholin-4-yl]pyrazolo[1,5-a]pyridine-7-carbonitrile] | 23 nM |
| C[C@@H]1CN(c2ccc(C#N)c3ncccc23)C[C@H](CN2CCN(c3ccnc(N4CC(N)C4)n3)CC2)O1 [Example 23, 5-[(2S,6R)-2-[[4-[2-(3-aminoazetidin-1-yl)pyrimidin-4-yl]piperazin-1-yl]methyl]-6-methyl-morpholin-4-yl]quinoline-8-carbonitrile] | 50 nM |
